Experimental data published in PMC8512853, “Synthesis, Bioactivity, Pharmacokinetic and Biomimetic Properties of Multi-Substituted Coumarin Derivatives” (Molecules, 2021).

Legend:
[1] = Inhibition of AAPH induced linoleic acid oxidation (lipid peroxidation)
Text: AAPH induced linoleic acid oxidation has been developed as a quick and reliable antioxidant activity assay. It is based on the inhibition of linoleic acid oxidation, initiated by the thermal free radical producer 2,2′-azobis(2-amidinopropane) dihydrochloride (AAPH), providing a measure of how efficiently antioxidants protect against lipid oxidation in vitro. Oxidation of exogenous linoleic acid by AAPH is followed by UV spectrophotometry at 234 nm in a highly diluted sample [38].
For the reference sample in a UV cuvette, 10 μL of the test sample (100 μM diluted in DMSO), 10 μL linoleic acid (LA) (16 mM), and buffer solution (pH 7.4) were added to a final volume of 1ml. For the measurement sample, in a UV cuvette, 10 μL of test sample, 50 μL AAPH (40 mM), 10 μL LA, and buffer solution were added to a final volume of 1 mL. Standard and blank samples were prepared in the same way using DMSO (solvent) instead of the tested coumarin analogues. The absorbance was measured after 2 min at 37 °C at 234 nm. Results were obtained via the following Equation (5):(5) %Inhibition=(Standard−Blank)−(Reference Sample−Measurement Sample)/(Standard−Blank) × 100

[2] = test system: A375 cells; assay: MTT cytotoxicity assay, A375; type: cell-based, human; conditions: Homo sapiens, A-375, 24 h, A375, 100 μΜ, read-out: Cell Toxicity A375 % (100 μΜ)
Method: Furthermore, the coumarin compounds synthesized in this study were also evaluated for their cytotoxicity against A549 (adenocarcinomic human alveolar basal epithelial cells) and A375 (human melanoma) cell lines.
(§1) This protocol was used for the evaluation of cell viability and all the cell lines. It must be noted that this assay describes the count of cells that remain alive after the treatment. For the experimental procedure a standard solution of MTT 1mg/mL in PBS was prepared which after filtration ([…] filter (Millipore, Carrigtwohill, Ireland)) was stored in the dark (4–8 °C) until use. In a 96-well plate, HaCaT, A549 and A375 cells were seeded in a number of 30 × 10^4 cells/well for each evaluation series respectively. The cells were incubated (37 °C, 5% CO2) for 24 h, followed by the addition of the tested analogues (100 μM, diluted in DMEM) and another 24-h incubation. Next, appropriate amount of MTT was added in the tested wells and the plate returned to the incubator for the next 4 h for the formation of the formazan crystals. The formazan crystals were then redissolved by adding DMSO (100 μL) and stirring lightly for 40 min, after which the absorbance was measured in a plate reader at 540 nm with a reference absorbance of 720 nm.
(§2) All samples were tested in triplicate, against a control (only cells), blank (no cells), and positive control (100 μM standard silibinin solution was used as a “cell-killing” standard).

[3] = test system: HaCaT cells; assay: DCF-DA assay (intracellular ROS after H2O2); type: cell-based, human; conditions: H2O2 treatment, 24 h; for inhibition at 100 µM: Homo sapiens, 100 μΜ, read-out: DCFDA Assay, % (100 μΜ)
Text: In the setting of evaluating bioactive compounds in terms of antioxidant capacity in various cell lines, DCF-DA is the most widely used assay for the detection of intracellular H2O2 and oxidative stress. DCF-DA is cell-permeable and is hydrolyzed intracellularly to the DCFH carboxylate anion, which is retained in the cell.
DCFDA is a fluorescent dye that measures the activity of hydroxyl radicals, peroxyl radicals, and other reactive oxygen species (ROS) within the cell. The DCFDA analysis protocol is based on the diffusion of DCFDA into the cell. It is then deacetylated from cellular esterases to a non-fluorescent compound, which is later oxidized by ROS to 2’,7’ -dichlorofluoroscein (DCF). The produced compound (DCF) is fluorescent and is detected by fluorescence spectroscopy at 485/535 nm (excitation/emission).
For the experimental procedure a standard solution of DCF-DA (20mM) in DMSO was prepared which was stored in the dark (−20 °C) until use. In a 96-well plate, cells were cultured to a density of 3 × 10^4 cells/well.
The cells remained in the incubator (37 °C, 5% CO2) for 24 h, after which an appropriate amount of H2O2 (2 mM) was added and the dish was returned for incubation for the next 2 h. This was followed by the addition of the test substances (100μM) and incubation for 24 h. At the end of the treatment time, all wells were washed with PBS, and DCF-DA solution (working concentration: 10 μM) (in 200 μL of nutrient) was added and incubated for 40 min.
After incubation, the medium with the DCF-DA was removed and replaced with FBS-free DMEM. The measurement of the […] was made immediately after that in a plate reader at 495/530 nm (excitation/emission).
All samples were tested in triplicates, against a control (without effects), blank (without cells), and positive control (standard 100 μM Ascorbic acid solution was used).
The percentage of antioxidant capacity (%) was calculated according to the following Equation (6) evaluating the presence of ROS [42]:(6) % AI=( OD Sample 530 nm−Blank)−(OD Control 530 nm−Blank)/(OD Control 530 nm−Blank) × 100

[4] = MTT cell viability assay, HaCaT; type: cell-based, human; conditions: human, HaCaT cells, 100 μΜ, 24 h
Text: The MTT assay (3- [4,5-dimethylthiazol-2-yl] -2,5 diphenyl tetrazole) is based on the conversion of MTT to formazan crystals by living cells, which determines mitochondrial activity. Since for most cell populations total mitochondrial activity is related to the number of viable cells, this assay is widely used to measure the in vitro cytotoxic effects of drugs on various cell lines or primary cells. The principle of the MTT assay is that for most viable cells the mitochondrial activity is stable, and therefore, an increase or decrease in the number of viable cells is linearly related to mitochondrial activity. The mitochondrial activity of the cells is reflected by the conversion of the MTT tetrazole salt to formazan crystals (bright purple), which can be solubilized (in this protocol with DMSO) for homogeneous measurement. Thus, any increase or decrease in the number of viable cells can be detected by measuring the formazan concentration reflected in the optical density (OD) measurement at 540 nm with a reference absorption of 720 nm.
All the compounds were tested for their cytotoxic activity against blank and control samples in the human epidermal keratinocyte line (HaCaT), at the concentration of 100 μΜ, and the results are presented in Table 4.
as §1, §2

## Cc1c(-c2ccc(Cl)cc2)c(=O)oc2cccc(O)c12 [Compound 4c, 3-(4-chlorophenyl)-5-hydroxy-4-methyl-chromen-2-one]
[1]
  IC50: 86.6 µM
[2]
  cytotoxicity at 100 µM: 22.2%
[3]
  DCFDA Assay, % (100 μΜ): no
[4]
  viability at 24 h, 100 μM: 63.7%

## Cc1c(-c2ccc(O)cc2)c(=O)oc2ccccc12 [Compound 4h, 3-(4-hydroxyphenyl)-4-methyl-chromen-2-one]
[1]
  AAPH % inhibition (100 μΜ): no
[2]
  cytotoxicity at 100 µM: 12.6%
[3]
  DCFDA Assay, % (100 μΜ): no
[4]
  viability at 24 h, 100 μM: 100%

## CC(=O)Oc1ccc(-c2c(C)c3cc(Br)ccc3oc2=O)cc1 [Compound 3i, 3-(4-acetyloxyphenyl)-6-bromo-4-methyl-chromen-2-one]
[1]
  IC50: 70.7 µM
[2]
  cytotoxicity at 100 µM: 50 to 60%
[3]
  inhibition at 100 µM: 80.9%
[4]
  viability at 24 h, 100 μM: 100%

## CC(=O)Oc1ccc(-c2c(C)c3ccccc3oc2=O)cc1OC(C)=O [Compound 3l, 3-(4,5-diacetyloxyphenyl)-4-methyl-chromen-2-one]
[1]
  IC50: 85.5 µM
[2]
  cytotoxicity at 100 µM: 40.4%
[3]
  DCFDA Assay, % (100 μΜ): no
[4]
  viability at 24 h, 100 μM: 100%

## CC(=O)Oc1ccc(-c2c(C)c3ccccc3oc2=O)cc1 [Compound 3h, 3-(4-acetyloxyphenyl)-4-methyl-chromen-2-one]
[1]
  IC50: 70.7 µM
[2]
  cytotoxicity at 100 µM: 43.2%
[3]
  DCFDA Assay, % (100 μΜ): no
[4]
  viability at 24 h, 100 μM: 96.2%

## CC(=O)Oc1ccc(-c2c(C)c3cc(Br)ccc3oc2=O)cc1OC(C)=O [Compound 3m, 3-(4,5-diacetyloxyphenyl)-6-bromo-4-methyl-chromen-2-one]
[1]
  IC50: 37.1 µM
[2]
  cytotoxicity at 100 µM: 33.3%
[3]
  DCFDA Assay, % (100 μΜ): no
[4]
  viability at 24 h, 100 μM: 100%

## CC(=O)Oc1cccc2oc(=O)c(-c3ccc(F)cc3)c(C)c12 [Compound 3f, 5-acetyloxy-3-(4-fluorophenyl)-4-methyl-chromen-2-one]
[2]
  cytotoxicity at 100 µM: 35.8%
[3]
  inhibition at 100 µM: 100%
[4]
  viability at 24 h, 100 μM: 100%

## CC(=O)Oc1ccc(-c2c(C)c3cc(Br)cc(Br)c3oc2=O)cc1OC(C)=O [Compound 3o, 3-(4,5-diacetyloxyphenyl)-6,8-dibromo-4-methyl-chromen-2-one]
[1]
  IC50: 77.2 µM
[2]
  cytotoxicity at 100 µM: 45.6%
[3]
  inhibition at 100 µM: 25.7%
[4]
  viability at 24 h, 100 μM: 100%

## Cc1c(-c2cccc(F)c2)c(=O)oc2cccc(O)c12 [Compound 4e, 3-(3-fluorophenyl)-5-hydroxy-4-methyl-chromen-2-one]
[1]
  AAPH % inhibition (100 μΜ): 31.0%
[2]
  cytotoxicity at 100 µM: 43.1%
[3]
  DCFDA Assay, % (100 μΜ): no
[4]
  viability at 24 h, 100 μM: 92.4%

## CC(=O)Oc1ccc(-c2c(C)c3cc(Cl)ccc3oc2=O)cc1OC(C)=O [Compound 3n, 3-(4,5-diacetyloxyphenyl)-6-chloro-4-methyl-chromen-2-one]
[1]
  IC50: 84.3 µM
[2]
  cytotoxicity at 100 µM: 11.5%
[3]
  DCFDA Assay, % (100 μΜ): no
[4]
  viability at 24 h, 100 μM: 100%

## CC(=O)Oc1ccc(-c2c(C)c3cc(Cl)ccc3oc2=O)cc1 [Compound 3j, 3-(4-acetyloxyphenyl)-6-chloro-4-methyl-chromen-2-one]
[1]
  AAPH % inhibition (100 μΜ): no
[2]
  cytotoxicity at 100 µM: 50 to 60%
[3]
  inhibition at 100 µM: 9%
[4]
  viability at 24 h, 100 μM: 90.5%

## CC(=O)Oc1cccc2oc(=O)c(-c3cccc(Br)c3)c(C)c12 [Compound 3g, 5-acetyloxy-3-(3-bromophenyl)-4-methyl-chromen-2-one]
[1]
  IC50: 50.7 µM
[2]
  cytotoxicity at 100 µM: 7.02%
[3]
  inhibition at 100 µM: 45.5%
[4]
  viability at 24 h, 100 μM: 100%

## CC(=O)Oc1cccc2oc(=O)c(-c3cccc(F)c3)c(C)c12 [Compound 3e, 5-acetyloxy-3-(3-fluorophenyl)-4-methyl-chromen-2-one]
[1]
  AAPH % inhibition (100 μΜ): inactive and no
[2]
  cytotoxicity at 100 µM: > 60%
[3]
  DCFDA Assay, % (100 μΜ): no
[4]
  viability at 24 h, 100 μM: 96.5%

## Cc1c(-c2cccc(Cl)c2)c(=O)oc2cccc(O)c12 [Compound 4b, 3-(3-chlorophenyl)-5-hydroxy-4-methyl-chromen-2-one]
[1]
  AAPH % inhibition (100 μΜ): no
[2]
  cytotoxicity at 100 µM: 52.8%
[3]
  inhibition at 100 µM: 27.4%
[4]
  viability at 24 h, 100 μM: 100%

## CC(=O)Oc1cccc2oc(=O)c(-c3cccc(Cl)c3)c(C)c12 [Compound 3b, 5-acetyloxy-3-(3-chlorophenyl)-4-methyl-chromen-2-one]
[1]
  IC50: 91.5 µM
[2]
  cytotoxicity at 100 µM: > 60%
[3]
  inhibition at 100 µM: 56.9%
[4]
  viability at 24 h, 100 μM: 100%

## Cc1c(-c2ccccc2Cl)c(=O)oc2cccc(O)c12 [Compound 4a, 3-(2-chlorophenyl)-5-hydroxy-4-methyl-chromen-2-one]
[1]
  AAPH % inhibition (100 μΜ): no
[2]
  cytotoxicity at 100 µM: 33.1%
[3]
  inhibition at 100 µM: 0%
[4]
  viability at 24 h, 100 μM: 100%

## Cc1c(-c2ccc(O)cc2)c(=O)oc2ccc(Br)cc12 [Compound 4i, 6-bromo-3-(4-hydroxyphenyl)-4-methyl-chromen-2-one]
[1]
  IC50: 70.7 µM
[2]
  cytotoxicity at 100 µM: 6.48%
[3]
  inhibition at 100 µM: 100%
[4]
  viability at 24 h, 100 μM: 100%

## CC(=O)Oc1cccc2oc(=O)c(-c3ccccc3F)c(C)c12 [Compound 3d, 5-acetyloxy-3-(2-fluorophenyl)-4-methyl-chromen-2-one]
[2]
  cytotoxicity at 100 µM: 28.5%
[3]
  inhibition at 100 µM: 22.4%
[4]
  viability at 24 h, 100 μM: 100%

## Cc1c(-c2ccc(F)cc2)c(=O)oc2cccc(O)c12 [Compound 4f, 3-(4-fluorophenyl)-5-hydroxy-4-methyl-chromen-2-one]
[1]
  IC50: 86.8 µM
[2]
  cytotoxicity at 100 µM: 45.4%
[3]
  DCFDA Assay, % (100 μΜ): no
[4]
  viability at 24 h, 100 μM: 100%

## CC(=O)Oc1cccc2oc(=O)c(-c3ccc(Cl)cc3)c(C)c12 [Compound 3c, 5-acetyloxy-3-(4-chlorophenyl)-4-methyl-chromen-2-one]
[1]
  IC50: 75.1 µM
[2]
  cytotoxicity at 100 µM: 24.8%
[3]
  DCFDA Assay, % (100 μΜ): no
[4]
  viability at 24 h, 100 μM: 100%

## Cc1c(-c2ccccc2F)c(=O)oc2cccc(O)c12 [Compound 4d, 3-(2-fluorophenyl)-5-hydroxy-4-methyl-chromen-2-one]
[1]
  AAPH % inhibition (100 μΜ): 0.0%
[2]
  cytotoxicity at 100 µM: 11.5%
[3]
  DCFDA Assay, % (100 μΜ): no
[4]
  viability at 24 h, 100 μM: 100%
